We go through two molecules from US20250197423A1, “RAS INHIBITORS” (Revolution Medicines, Inc., priority 2022, published 2025).

For series [1] the following is noted: from CO[C@@H](C)c1ncccc1-c1c(CC(C)(C)CO)c2cc(C3=CCCN(C[C@H](NC(=O)OC(C)(C)C)C(=O)N4CCC[C@@H](C(=O)O)N4)C3)ccc2n1CC(F)(F)F; ester bond; 18-membered ring; EDCI/HOBt/DIEA; DCM; 12.5 mM; 25.0 °C; 16.0 h; 3 steps.
A further series relates to SW1573. The conditions noted are these: Canon et al. 2019; cited from earlier work.

Take `CO[C@@H](C)c1ncccc1-c1c2c3cc(ccc3n1CC(F)(F)F)C1=CCCN(C1)C[C@H](NC(=O)OC(C)(C)C)C(=O)N1CCC[C@H](N1)C(=O)OCC(C)(C)C2`: the ring closure, isolated yield in series [1] stood at 63.7%.
Turning to `C=CC(=O)N1CCN(c2nc(=O)n(-c3c(C)ccnc3C(C)C)c3nc(-c4c(O)cccc4F)c(F)cc23)[C@@H](C)C1` [AMG510], the “sensitivity of cell line to inhibitor” value in the series with SW1573 is reported as “insensitive”.
